# Laboratory results taken from patent US20050265999A1, “Modulation of 5-HT2 receptors as a treatment for cardiovascular diseases” (Myogen, Inc., priority 2003, published 2005).
# Experiments:
# 5-HT2B = biological target: T1, 5-HT2B (Homo sapiens, UniProt P41595); test: Radioligand receptor binding assay (MDS Pharma); details: 10 μM compound, n=2
# T1 construct: purchased MDS Pharma services 271700
# Experimental: (§1) Receptor binding assays. Receptor binding assays were performed by MDS Pharma services. Assays included: Adenosine A1 (cat# 200510), Adenosine A2A (cat# 200610), Adenosine A3 (cat# 200720), Adrenergic alpha 1 (cat# 203500), Imidazoline 12 central (cat# 241000), Imidazoline I2 peripheral (cat# 241100), Inositol triphosphate (cat# 242500), Phorbol Ester (cat# 264500), 5-HT 2B (cat# 271700), and 5-HT 4 (cat# 272000).
# (§2) • Summary of radioligand binding assays for 11 receptors. Data represent % inhibition of ligand binding in the presence of 10 μM 18264 (n=2).
# (§3) • Summary of radioligand binding assays for three receptors. Data represent % inhibition of ligand binding in the presence of 10 μM 20068 (n=2).
# [1] = test system: neonatal rat ventricular myocytes (NRVM); test: ANF secretion by competitive ELISA in NRVM; assay type: cell-based; details: NRVM stimulated with 18264 (1 μM), 48 h; antagonist up to 3 μM
# Experimental: (§4) NRVM culture. For preparations of neonatal rat ventricular myocytes (NRVMs), hearts were removed from 10-20 newborn (1-2 days old) Sprague-Dawley rats. Isolated ventricles were pooled, minced and dispersed by three 20-min incubations at 37° C. in Ads buffer (116 mM NaCl, 20 mM HEPES, 10 mM NaH2PO4, 5.5 mM glucose, 5 mM KCl, 0.8 mM MgSO4, pH 7.4) containing collagenase Type II (65 units/ml, Worthington) and pancreatin (0.6 mg/ml, GibcoBRL). Dispersed cells were applied to a discontinuous gradient of 40.5% and 58.5% (v/v) Percoll (Amersham Biosciences), centrifuged, and myocytes collected from the interface layer. Myocyte preparations were pre-plated in Dulbecco's modified Eagle's medium (DMEM, Cellgro), supplemented with 10% (v/v) fetal bovine serum (FBS, HyClone), 4 mM L-glutamine and 1% penicillin/streptomycin for 1 hour at 37° C. to reduce fibroblast contamination, then plated at a density of 2.5×10^5 cells per well on 6-well tissue culture plates (or 10,000 cells/well on 96-well tissue culture plates) coated with a 0.2% (w/v) gelatin solution. […]
# (§5) Hypertrophy and toxicity assays. Primary hypertrophy endpoints for NRVM included quantitation of: ANF secretion, total cellular protein and cell volume. ANF in media supernatants was quantitated by competitive ELISA using a monoclonal anti-ANF antibody (Biodesign) and a biotinylated ANF peptide (Phoenix Peptide). Total cellular protein was quantitated by standard Coomassie dye-binding assay; cells were lysed in protein assay reagent (BioRad) and absorbance at A595 was measured after 1 hour. […] After recovery by centrifugation, cell pellets were washed in PBS, resuspended in 10 ml IsoFlow electrolyte solution (Beckman-Coulter) and analyzed with a Z2 Coulter Particle Counter and Size Analyzer (Beckman-Coulter). Cytotoxicity was quantitated by measuring release of adenylate kinase (AK) from cultured NRVM into culture medium (ToxiLight kit, Cambrex).
# [2] = test system: neonatal rat ventricular myocytes (NRVM); test: Cell volume measurement (Coulter counter) of NRVM; assay type: cell-based; details: PE-stimulated (20 μM) NRVM, 48 hours
# Experimental: as §4, §5
# [3] = test system: 28 kDa calcineurin-regulated MCIP1 protein; test: Western blot of MCIP1 protein in NRVM; assay type: cell-based, rat; details: NRVM stimulated with 18264 (1 μM), 48 h; CsA 500 nM; ketanserin, cyproheptadine 0.3 and 3 μM; 20068 1 and 3 μM
# Experimental: as §4
# Western Blots. […] Protein concentrations were determined by the bicinchoninic acid method (BCA Protein Assay, Pierce) with bovine serum albumin as a standard. Equivalent quantities of protein samples ([…]) were denatured in Laemmli buffer and resolved on Tris-glycine SDS-PAGE gels (4-20% acrylamide gradient, Invitrogen). […]
# HDAC5 = test: HDAC localization assay, GFP-HDAC5 in NRVM; assay type: cell-based, rat
# Experimental: NRVM culture. For preparations of neonatal rat ventricular myocytes (NRVMs), hearts were removed from 10-20 newborn (1-2 days old) Sprague-Dawley rats. Isolated ventricles were pooled, minced and dispersed by three 20-min incubations at 37° C. in Ads buffer (116 mM NaCl, 20 mM HEPES, 10 mM NaH2PO4, 5.5 mM glucose, 5 mM KCl, 0.8 mM MgSO4, pH 7.4) containing collagenase Type II (65 units/ml, Worthington) and pancreatin (0.6 mg/ml, GibcoBRL). Dispersed cells were applied to a discontinuous gradient of 40.5% and 58.5% (v/v) Percoll (Amersham Biosciences), centrifuged, and myocytes collected from the interface layer. Myocyte preparations were pre-plated in Dulbecco's modified Eagle's medium (DMEM, Cellgro), supplemented with 10% (v/v) fetal bovine serum (FBS, HyClone), 4 mM L-glutamine and 1% penicillin/streptomycin for 1 hour at 37° C. to reduce fibroblast contamination, then plated at a density of 2.5×10^5 cells per well on 6-well tissue culture plates (or 10,000 cells/well on 96-well tissue culture plates) coated with a 0.2% (w/v) gelatin solution. After 24 hours in culture, myocyte preparations were transferred to serum-free maintenance medium (DMEM supplemented with 0.1% (v/v) Nutridoma (Roche), L-glutamine and penicillin/streptomycin). Where indicated, NRVM were treated with test compounds for a period of 48 h. For immunofluorescence applications, NRVM cultures were fixed, incubated with primary antibodies against alpha skeletal actin and atrial natriuretic factor, then incubated with rhodamine- or flurorescein-conjugated secondary antibodies. For HDAC localization assays, NRVM were plated to clear bottomed 96-well plates and infected overnight with recombinant adenovirus encoding HDAC5 fused to green fluorescent protein (multiplicity of infection=50). The next day, medium was replaced with serum-free maintenance medium for 4 hours, and test compounds added. After two hours, NRVM were fixed and imaged by fluorescent microscopy.
# 5-HT2C = biological target: T2, 5-HT2C (Homo sapiens, UniProt P28335); test: Radioligand receptor binding assay; details: 10 μM compound, n=2
# T2 sequence (P28335 33-458): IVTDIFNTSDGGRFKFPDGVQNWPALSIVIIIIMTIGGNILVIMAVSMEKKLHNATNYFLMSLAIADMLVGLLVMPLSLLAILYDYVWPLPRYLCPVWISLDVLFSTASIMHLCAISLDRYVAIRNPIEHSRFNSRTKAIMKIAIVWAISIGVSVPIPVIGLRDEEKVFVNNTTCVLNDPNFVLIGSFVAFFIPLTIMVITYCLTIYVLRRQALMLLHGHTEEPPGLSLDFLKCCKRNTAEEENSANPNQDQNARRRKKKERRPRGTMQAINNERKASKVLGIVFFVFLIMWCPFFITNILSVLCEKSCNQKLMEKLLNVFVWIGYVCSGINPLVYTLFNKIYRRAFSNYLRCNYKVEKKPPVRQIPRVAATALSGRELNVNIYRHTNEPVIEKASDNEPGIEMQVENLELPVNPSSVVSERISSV
# [4] = test system: neonatal rat ventricular myocytes (NRVM); test: Total cellular protein (Coomassie dye-binding) in NRVM; assay type: cell-based; details: PE-stimulated (20 μM) NRVM, 0.1-3 μM compound, 48 hours
# Experimental: NRVM culture. For preparations of neonatal rat ventricular myocytes (NRVMs), hearts were removed from 10-20 newborn (1-2 days old) Sprague-Dawley rats. Isolated ventricles were pooled, minced and dispersed by three 20-min incubations at 37° C. in Ads buffer (116 mM NaCl, 20 mM HEPES, 10 mM NaH2PO4, 5.5 mM glucose, 5 mM KCl, 0.8 mM MgSO4, pH 7.4) containing collagenase Type II (65 units/ml, Worthington) and pancreatin (0.6 mg/ml, GibcoBRL). Dispersed cells were applied to a discontinuous gradient of 40.5% and 58.5% (v/v) Percoll (Amersham Biosciences), centrifuged, and myocytes collected from the interface layer. […]
# as §5, with “Cytotoxicity was quantitated by measuring release of adenylate kinase (AK) from cultured NRVM into culture medium (ToxiLight kit, Cambrex).” left out
# 5-HT1 = test: Radioligand receptor binding assay; details: 10 μM compound, n=2
# Experimental: as §1, §2, §3
# [5] = test system: neonatal rat ventricular myocytes (NRVM); test: Cytotoxicity by adenylate kinase (AK) release from NRVM; assay type: cell-based
# Experimental: Hypertrophy and toxicity assays. Primary hypertrophy endpoints for NRVM included quantitation of: ANF secretion, total cellular protein and cell volume. ANF in media supernatants was quantitated by competitive ELISA using a monoclonal anti-ANF antibody (Biodesign) and a biotinylated ANF peptide (Phoenix Peptide). Total cellular protein was quantitated by standard Coomassie dye-binding assay; cells were lysed in protein assay reagent (BioRad) and absorbance at A595 was measured after 1 hour. For cell volume measurements, NRVM cultured in 6-well dishes were harvested by treatment with trypsin (Cellgro). After recovery by centrifugation, cell pellets were washed in PBS, resuspended in 10 ml IsoFlow electrolyte solution (Beckman-Coulter) and analyzed with a Z2 Coulter Particle Counter and Size Analyzer (Beckman-Coulter). Cytotoxicity was quantitated by measuring release of adenylate kinase (AK) from cultured NRVM into culture medium (ToxiLight kit, Cambrex).
# T1 sequence (P41595 whole entry): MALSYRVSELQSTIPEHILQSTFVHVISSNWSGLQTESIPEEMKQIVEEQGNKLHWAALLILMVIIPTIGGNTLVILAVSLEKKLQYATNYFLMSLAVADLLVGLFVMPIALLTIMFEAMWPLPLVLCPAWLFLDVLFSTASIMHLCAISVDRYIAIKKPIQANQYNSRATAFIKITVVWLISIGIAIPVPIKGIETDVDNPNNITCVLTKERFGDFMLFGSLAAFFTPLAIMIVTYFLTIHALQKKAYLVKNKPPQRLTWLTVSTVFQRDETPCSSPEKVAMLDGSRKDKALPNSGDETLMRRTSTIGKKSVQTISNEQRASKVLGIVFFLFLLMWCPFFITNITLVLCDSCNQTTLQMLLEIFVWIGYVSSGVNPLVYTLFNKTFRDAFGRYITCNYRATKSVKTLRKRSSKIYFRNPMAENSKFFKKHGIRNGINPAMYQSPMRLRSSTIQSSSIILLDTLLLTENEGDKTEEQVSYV
compound,measurement,setting,value
"Nc1cc(-c2ccccc2)nc2ccccc12 [Compound 20068, 2-Phenyl-quinolin-4-ylamine]",inhibition at 10 µM,5-HT2B,76%
same,block of 18264-dependent ANF secretion,[1],effective at blocking
same,reduction of PE-dependent increase in cardiomyocyte cell volume,[2]; 3 μM compound,49%
same,attenuation of PE-dependent increase in cell volume (in words),[2]; 0.1-3 μM compound,attenuated
same,attenuation of 18264-dependent induction of MCIP1 protein expression,[3],blocking 18264-dependent increases in MCIP1 protein in a dose-dependent manner
same,block of 18264-dependent nuclear export of HDAC5,HDAC5; NRVM pretreated with 20068 (2 μM) one hour before 18264 (1 μM),effective at blocking
same,inhibition at 10 µM,5-HT2C,63%
same,attenuation of PE-dependent increase in total cellular protein,[4],attenuated
same,% Inhibition of Binding,5-HT1,19%
same,"cytotoxicity (AK release), in words","[5]; presence or absence of hypertrophic stimuli, up to 3 micromolar, 48 hours",no significant cytotoxicity
"CNC[C@H](O)c1cccc(O)c1 [PE, phenylephrine, reference compound]",nuclear export of HDAC5-GFP,"HDAC5; NRVM, two hours, 18264 1 μM, PE 20 μM",moves to cytoplasm
"O=C(c1ccc(F)cc1)C1CCN(CCn2c(=O)[nH]c3ccccc3c2=O)CC1 [ketanserin, reference compound]",block of 18264-dependent ANF secretion,[1],able to block
same,attenuation of 18264-dependent induction of MCIP1 protein expression,[3],attenuated
Triton X-100 [reference compound],fold change in AK release versus unstimulated control,"[5]; 0.1% Triton X-100, positive control",approximately 6.5 fold
